Measured values published in US9238074B2, “Crystalline forms of the di-sodium salt of N-(5-chlorosalicyloyl)-8-aminocaprylic acid” (Emisphere Technologies, Inc., priority 2005, dated 2016).

Assay: Stability of crystalline forms of 5-CNAC (room temperature, humidity, storage)

Row | SMILES | stability as a function of relative humidity (relative humidity below about 50%) | form conversion on storage (storage of the mixture of Forms I and IV (Example 5) over time)
1 | O=C([O-])CCCCCCCNC(=O)c1cc(Cl)ccc1[O-].[Na+].[Na+] [Form III, di-sodium salt of N-(5-chlorosalicyloyl)-8-aminocaprylic acid] | unstable at a relative humidity below about 50% | 
2 | O=C([O-])CCCCCCCNC(=O)c1cc(Cl)ccc1[O-].[Na+].[Na+] [Form IV, di-sodium salt of N-(5-chlorosalicyloyl)-8-aminocaprylic acid] |  | convert to Form I over time on storage
